Results taken from publication PMC5011342, “A high throughput drug screening assay to identify compounds that promote oligodendrocyte differentiation using acutely dissociated and purified oligodendrocyte precursor cells” (BMC Research Notes, 2016).
Read-outs that look alike come from different tables or passages of the source.

Experiments:
expanded OPCs = experiment: cells; details: for viability at 0.1 µM / viability at 1 µM / viability at 10 µM: Rattus norvegicus, 72 h
Experimental: Having established a consistent assay for measuring OL differentiation in vitro, the next step was to utilize this assay to assess the ability of a wide array of compounds to promote OL differentiation. Prior to library screening, we first established the maximum non-toxic dose of each compound in the library. […] Therefore, we added each compound in the NIH clinical collection (NCC) library to OPCs at 10, 1, and 0.1 µM concentrations. Three days later, we assessed viability of the treated cells by measuring AlamarBlue fluorescence, a measure of cell viability (see “Methods” section). […] Appropriately, we established three sets of screening concentrations for library compounds: non-toxic compounds were tested at 10 and 2 µM, slightly toxic compounds (only toxic at 10 µM) were tested at 2 and 0.4 µM, and very toxic compounds were tested at 0.4 and 0.08 µM.
OPCs were expanded in vitro by seeding into PDL-coated tissue culture flasks at 1000–2000 cells/cm^2 in differentiation media supplemented with 10 ng/ml PDGF-AA. Proliferating OPCs were fed every 2–3 days and supplemented with 2–3× concentration of PDGF as needed to prevent OPC differentiation. After 6–7 days of proliferation, OPCs were harvested by trypsinization, plated into PDL-coated 96-well Falcon plates and centrifuged at 200×g to facilitate cell attachment, survival, and even distribution of cells. Expanded OPCs were seeded in differentiation media at 10,000 cells/well and incubated for 2 h at 37 °C, 10 % CO2 prior to addition of compounds. The NCC library was diluted and added to cells at 10, 1, and 0.1 µM; each concentration was tested in quadruplicate. As a positive control for the induction of toxicity, 5 ng/ml tunicamycin was added to 8 wells in each plate. Three days later, a 1:10 dilution of alamarBlue® (AB) was added to each well and cells were incubated 4 h at 37 °C, 10 % CO2. AB fluorescence was measured using a PerkinElmer Victor II fluorescence microplate reader (PerkinElmer, Waltham, MA) with 560 nm excitation/590 nm emission filters. For library screening, the highest concentration of each compound was adjusted to a minimally toxic concentration based on this toxicity data. Compounds were additionally tested at a second concentration that was 1/5th of the top concentration. The final concentration of DMSO in each well was 0.1 %.

[1] = tested on: acutely dissociated and purified rat OPCs; experiment: Acute OL differentiation assay (MBP expression/cell, immunofluorescent image quantification); assay type: cell-based; details: for activation at 2 µM / activation at 10 µM / activation at 0.08 µM / activation at 0.4 µM: Rattus norvegicus
Summary of the method: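 This acute differentiation assay used purified rat OPCs from postnatal day 6–7 pups, seeded into PDL/laminin-coated 96-well plates in differentiation medium lacking PDGF and FGF. Compounds were applied in quadruplicate after a 1–2 h preincubation at 37 °C, 10 % CO2, with 0.1 % DMSO negative and 40 ng/ml T3 positive controls in eight wells. After fixation on DIV4, anti-MBP immunofluorescence images yielded MBP expression/cell.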

[2] = alamarBlue viability of expanded OPCs, compound at 0.1 µM, relative to DMSO control
[3] = alamarBlue viability of expanded OPCs, compound at 1 µM, relative to DMSO control
[4] = alamarBlue viability of expanded OPCs, compound at 10 µM, relative to DMSO control
[5] = test compound at 2 uM, NCC library screen, sheet "All OLga data", relative to quetiapine, read-out: 2 uM (% Quet)
[6] = test compound at 10 uM, NCC library screen, sheet "All OLga data", relative to quetiapine, read-out: 10 uM (% Quet)
[7] = read-out: 0.1 µM (% DMSO), alamarBlue viability of expanded OPCs, compound at 0.1 µM, sheet All Tox data
[8] = read-out: 1 µM (% DMSO), alamarBlue viability of expanded OPCs, compound at 1 µM, sheet All Tox data
[9] = read-out: 10 µM (% DMSO), alamarBlue viability of expanded OPCs, compound at 10 µM, sheet All Tox data
[10] = 2 uM test compound, relative to quetiapine, sheet "All OLga data", read-out: OL differentiation, 2 uM (% Quet)
[11] = 10 uM test compound, relative to quetiapine, sheet "All OLga data", read-out: OL differentiation, 10 uM (% Quet)
[12] = test compound at 2 uM, MBP expression relative to quetiapine, NCC library screen, sheet "All OLga data", read-out: 2 uM (% Quet)
[13] = test compound at 10 uM, MBP expression relative to quetiapine, NCC library screen, sheet "All OLga data", read-out: 10 uM (% Quet)
[14] = read-out: 0.1 µM (% DMSO), alamarBlue viability, NCC library compound at 0.1 µM, sheet "All Tox data"
[15] = read-out: 1 µM (% DMSO), alamarBlue viability, NCC library compound at 1 µM, sheet "All Tox data"
[16] = read-out: 10 µM (% DMSO), alamarBlue viability, NCC library compound at 10 µM, sheet "All Tox data"
[17] = test compound at 0.08 uM, NCC library screen, sheet "All OLga data", relative to quetiapine, read-out: 0.08 uM (% Quet)
[18] = test compound at 0.4 uM, NCC library screen, sheet "All OLga data", relative to quetiapine, read-out: 0.4 uM (% Quet)
[19] = 0.08 uM test compound, relative to quetiapine, sheet "All OLga data", read-out: OL differentiation, 0.08 uM (% Quet)
[20] = 0.4 uM test compound, relative to quetiapine, sheet "All OLga data", read-out: OL differentiation, 0.4 uM (% Quet)

SMILES | 0.1 µM (% DMSO) (expanded OPCs; [2]) | 1 µM (% DMSO) (expanded OPCs; [3]) | 10 µM (% DMSO) (expanded OPCs; [4]) | activation at 2 µM [1, 5] [%] | activation at 10 µM [1, 6] [%] | viability at 0.1 µM (expanded OPCs; [7]) [%] | viability at 1 µM (expanded OPCs; [8]) [%] | viability at 10 µM (expanded OPCs; [9]) [%] | other results
CC(C(=O)O)c1cccc(C(=O)c2ccccc2)c1 (stereo not shown) [Ketoprofen] | 90.4 | 89.7 | 95.0 | 0.75 | -29.2 |  |  |  | 
CCCCNc1cc(C(=O)O)cc(S(N)(=O)=O)c1Oc1ccccc1 [Bumetanide] | 92.3 | 97.8 | 92.2 | -20.2 | -11.6 |  |  |  | 
O=C(O)/C=C/c1ccc(Cn2ccnc2)cc1 [Ozagrel] |  |  |  |  |  | 82.8 | 85.9 | 92.2 | activation at 2 µM [1, 10]: -6.1%; activation at 10 µM [1, 11]: -20.6%
NC(Cc1cc(I)c(Oc2cc(I)c(O)c(I)c2)c(I)c1)C(=O)O (stereo not shown) [thyroxine, reference compound] | 212.0 | 190.0 | 120.0 | -26.7 | -186 |  |  |  | promotion of OL differentiation (in words) ([1]; MBP expression versus 0.1 % DMSO negative control): able to promote OL differentiation at one or both concentrations tested
CC1COc2c(N3CCN(C)CC3)c(F)cc3c(=O)c(C(=O)O)cn1c23 (stereo not shown) [Ofloxacin] | 93.4 | 91.6 | 89.4 | 3.8 | -3.8 | 95.3 | 91.5 | 99.5 | activation at 2 µM [1, 10]: -4.3%; activation at 10 µM [1, 11]: 4.9%
Nc1nnc(-c2cccc(Cl)c2Cl)c(N)n1 [Lamotrigine] |  |  |  |  |  | 94.8 | 104 | 99.5 | activation at 2 µM [1, 10]: -14.6%; activation at 10 µM [1, 11]: -8.7%
Cc1cnc(NC(=O)C2=C(O)c3ccccc3S(=O)(=O)N2C)s1 [Meloxicam] | 93.1 | 94.6 | 86.1 |  |  |  |  |  | activation at 2 µM [1, 12]: -8.5%; activation at 10 µM [1, 13]: 1.4%
O=c1c2ccccc2[se]n1-c1ccccc1 [Ebselen] |  |  |  |  |  |  |  |  | viability at 0.1 µM (expanded OPCs; [14]): 61.7%; viability at 1 µM (expanded OPCs; [15]): 30.7%; viability at 10 µM (expanded OPCs; [16]): 10.1%; activation at 0.08 µM [1, 17]: 131%; activation at 0.4 µM [1, 18]: -95.7%
CC(C)C[C@H](NC(=O)[C@@H](COC(C)(C)C)NC(=O)[C@H](Cc1ccc(O)cc1)NC(=O)[C@H](CO)NC(=O)[C@H](Cc1c[nH]c2ccccc12)NC(=O)[C@H](Cc1cnc[nH]1)NC(=O)[C@@H]1CCC(=O)N1)C(=O)N[C@@H](CCCNC(=N)N)C(=O)N1CCC[C@H]1C(=O)NNC(N)=O [Goserelin] |  |  |  |  |  |  |  |  | 0.1 µM (% DMSO) (expanded OPCs; alamarBlue viability, NCC library compound at 0.1 µM, sheet "All Tox data"): 95.7 % DMSO; 1 µM (% DMSO) (expanded OPCs; alamarBlue viability, NCC library compound at 1 µM, sheet "All Tox data"): 94.5 % DMSO; 10 µM (% DMSO) (expanded OPCs; alamarBlue viability, NCC library compound at 10 µM, sheet "All Tox data"): 97.2 % DMSO; 2 uM (% Quet) ([1]; test compound at 2 uM, NCC library screen, sheet "All OLga data", relative to quetiapine): -6.3 % Quet; 10 uM (% Quet) ([1]; test compound at 10 uM, NCC library screen, sheet "All OLga data", relative to quetiapine): 5.4 % Quet
CC(C)NCC(O)COc1cccc2[nH]ccc12 (stereo not shown) [Pindolol] | 88.9 | 89.4 | 86.5 | -2.9 | -35.6 |  |  |  | 
CC1(C)O[C@@H]2C[C@H]3[C@@H]4C[C@H](F)C5=CC(=O)C=C[C@]5(C)[C@@]4(F)[C@@H](O)C[C@]3(C)[C@]2(C(=O)CO)O1 [Fluocinolone Acetonide] |  |  |  | 12.9 | 9.2 |  |  |  | viability at 0.1 µM (expanded OPCs; [14]): 116%; viability at 1 µM (expanded OPCs; [15]): 118%; viability at 10 µM (expanded OPCs; [16]): 111%
Cn1c(NCCN(CCO)CCCc2ccc([N+](=O)[O-])cc2)cc(=O)n(C)c1=O [Nifekalant] |  |  |  |  |  | 94.4 | 97.6 | 109 | activation at 2 µM [1, 10]: -9.4%; activation at 10 µM [1, 11]: 6%
Fc1ccc([C@@H]2CCNC[C@H]2COc2ccc3c(c2)OCO3)cc1 [Paroxetine] | 63.3 | 27.9 | 8.3 |  |  | 70.7 | 38.3 | 11.7 | activation at 0.08 µM [1, 19]: 16.2%; activation at 0.4 µM [1, 20]: -6.1%; activation at 0.08 µM ([1]; test compound at 0.08 uM, MBP expression relative to quetiapine, NCC library screen, sheet "All OLga data", read-out: 0.08 uM (% Quet)): -4.5%; activation at 0.4 µM ([1]; test compound at 0.4 uM, MBP expression relative to quetiapine, NCC library screen, sheet "All OLga data", read-out: 0.4 uM (% Quet)): -15.9%
CCOC(=O)CCC(=O)O[C@H]1[C@H](O[C@@H]2[C@@H](C)[C@H](O[C@H]3C[C@@](C)(OC)[C@@H](O)[C@H](C)O3)[C@@H](C)C(=O)O[C@H](CC)[C@@](C)(O)[C@H](O)[C@@H](C)C(=O)[C@H](C)C[C@@]2(C)O)O[C@H](C)C[C@@H]1N(C)C [Erythromycin Ethylsuccinate] | 95.4 | 87.4 | 75.9 | 1 | 8.7 |  |  |  | 
COc1c(N2CCNC(C)C2)c(F)cc2c(=O)c(C(=O)O)cn(C3CC3)c12 (stereo not shown) [Gatifloxacin] | 99.4 | 98.0 | 96.4 |  |  |  |  |  | activation at 2 µM [1, 12]: 34.6%; activation at 10 µM [1, 13]: 24.6%
CC(C)/N=c1\cc2n(-c3ccc(Cl)cc3)c3ccccc3nc-2cc1Nc1ccc(Cl)cc1 [Clofazimine] |  |  |  |  |  |  |  |  | viability at 0.1 µM (expanded OPCs; [14]): 89.9%; viability at 1 µM (expanded OPCs; [15]): 45.9%; viability at 10 µM (expanded OPCs; [16]): 19%; activation at 0.08 µM [1, 17]: 0.25%; activation at 0.4 µM [1, 18]: -57.8%
CCCC(CCC)C(=O)O [Valproic Acid] |  |  |  | -5.2 | -29.7 |  |  |  | viability at 0.1 µM (expanded OPCs; [14]): 97.5%; viability at 1 µM (expanded OPCs; [15]): 93.1%; viability at 10 µM (expanded OPCs; [16]): 104%
CCC(C)n1ncn(-c2ccc(N3CCN(c4ccc(OCC5COC(Cn6cncn6)(c6ccc(Cl)cc6Cl)O5)cc4)CC3)cc2)c1=O (stereo not shown) [Itraconazole] |  |  |  |  |  | 86.1 | 29.2 | 26.2 | activation at 0.08 µM [1, 19]: 2.8%; activation at 0.4 µM [1, 20]: -174%
C=C1/C(=C\C=C2/CCC[C@]3(C)[C@@H]([C@H](C)/C=C/[C@@H](O)C4CC4)CC[C@@H]23)C[C@@H](O)C[C@@H]1O [Calcipotriene] |  |  |  |  |  | 98.3 | 89 | 11.5 | activation at 0.4 µM [1, 20]: 14.8%; activation at 2 µM [1, 10]: -7.8%
